Data from the CheMixHub ionic liquid set.
Where “and” joins values, the source holds several entries; their conditions need not be identical. Identical values can stand only once.

Experiment: xn = mol fraction of the nth substance listed

CCCC[n+]1ccn(C)c1.F[B-](F)(F)F + CS(C)=O
100 kPa
Conditions | electrical conductivity, 298.15 K [S/m] | viscosity, 298.15 K | viscosity, 303.15 K [mPa·s] | viscosity, 308.15 K [mPa·s] | viscosity, 313.15 K [mPa·s]
x1 = 0.0192 | – | 3.4 mPa·s | 2.9 | 2.46 | 2.17
x1 = 0.0447 | – | 5.06 mPa·s | 4.12 | 3.28 | 2.8
x1 = 0.0661 | – | 6.29 mPa·s | 5.13 | 3.85 | 3.2
x1 = 0.0722 | 0.974 | 3.144 mPa·s | – | – | –
x1 = 0.0974 | – | 8.27 mPa·s | 6.5 | 4.89 | 4.03
x1 = 0.1622 | – | 12.79 mPa·s | 9.68 | 6.72 | 5.22
x1 = 0.1764 | – | 5.489 mPa·s | – | – | –
x1 = 0.2138 | – | 16.68 mPa·s | 12.57 | 8.83 | 6.86
x1 = 0.2145 | 1.016 | 6.836 mPa·s | – | – | –
x1 = 0.2889 | – | 22.73 mPa·s | 17.15 | 11.9 | 9.21
x1 = 0.3225 | 0.831 | 11.38 mPa·s | – | – | –
x1 = 0.3735 | – | 30.07 mPa·s | 22.87 | 15.97 | 12.58
x1 = 0.4189 | 0.672 | 17.2 mPa·s | – | – | –
x1 = 0.4431 | – | 36.58 mPa·s | 27.97 | 19.78 | 15.65
x1 = 0.5247 | – | 44.65 mPa·s | 34.44 | 24.63 | 19.75
x1 = 0.607 | 0.436 | 34 mPa·s | – | – | –
x1 = 0.6172 | – | 54.3 mPa·s | 42.3 | 30.73 | 24.85
x1 = 0.6557 | 0.352 | 38.87 mPa·s | – | – | –
x1 = 0.6772 | – | 61 mPa·s | 47.6 | 34.97 | 28.49
x1 = 0.7513 | – | 69.5 mPa·s | 54.7 | 40.59 | 33.35
x1 = 0.7958 | – | 75 mPa·s | 59.2 | 44.05 | 36.37
x1 = 0.8283 | 0.284 | – | – | – | –
x1 = 0.8516 | – | 81.9 mPa·s | – | 48.7 | 40.3
x1 = 0.8954 | – | 87.5 mPa·s | 69.6 | 52.5 | 43.72
x1 = 0.9155 | – | 82.7 mPa·s | – | – | –
x1 = 0.9373 | – | 92.9 mPa·s | 74.1 | 56.2 | 46.9
x1 = 0.9687 | – | 97.1 mPa·s | 77.5 | 59 | 49.4
x1 = 1 | 0.243 | 101 mPa·s and 104.7 mPa·s | 80.7 | 61.5 | 51.5

CCCC[n+]1ccn(C)c1.O=C([O-])C(F)(F)F + CC(=O)[O-].CCCC[n+]1ccn(C)c1
viscosity [mPa·s], 101 kPa
Conditions | 293.15 K | 298.15 K | 303.15 K | 313.15 K | 323.15 K | 333.15 K | 343.15 K | 353.15 K
x2 = 0 | – | – | 58 | 37.8 | 26.1 | 18.89 | 14.47 | 11.25
x2 = 0.2508 | 137.7 | 103 | 78.8 | 49.7 | 33 | 23.2 | 17.33 | 13.18
x2 = 0.4999 | 210 | 152.5 | 113.3 | 66.8 | 42.9 | 29.1 | 20.74 | 15.68
x2 = 0.7487 | 343 | 238 | 171.1 | 94.9 | 57.4 | 37.6 | 25.9 | 18.86

CC(=O)[O-].C[NH+](C)C + O
298.15 K, 101 kPa
Conditions | viscosity [mPa·s]
x1 = 0.5942 | 2.59
x1 = 0.8068 | 2.64
x1 = 0.8639 | 2.66

CCCC[n+]1ccn(C)c1.F[B-](F)(F)F + OCCOCCOCCOCCO
Conditions | viscosity [mPa·s]
298.15 K, 101 kPa, x2 = 0 | 94.4

CCCCCC[n+]1ccn(C)c1.c1nnn[n-]1 + CCCCCCCC[P+](CC)(CC)CC.O=S(=O)([N-]S(=O)(=O)C(F)(F)F)C(F)(F)F
100 kPa
Conditions | viscosity [mPa·s]
278.15 K, x2 = 0.301 | 990
283.15 K, x2 = 0.597 | 409
283.15 K, x2 = 0.697 | 347
288.15 K, x2 = 0.4 | 414
298.15 K, x2 = 0.597 | 156
303.15 K, x2 = 0.4 | 156
303.15 K, x2 = 0.5 | 129
303.15 K, x2 = 0.899 | 90
308.15 K, x2 = 0.5 | 100
308.15 K, x2 = 0.597 | 93
308.15 K, x2 = 0.697 | 82
313.15 K, x2 = 0.697 | 66
318.15 K, x2 = 0.301 | 77
318.15 K, x2 = 0.4 | 74
318.15 K, x2 = 0.597 | 61
323.15 K, x2 = 0.1 | 86
323.15 K, x2 = 0.5 | 52

C1COCCO1 + CC[n+]1ccn(C)c1.F[B-](F)(F)F
100 kPa, x1 = 1
Conditions | viscosity [mPa·s]
323.15 K | 0.814
343.15 K | 0.64

CC1COC(=O)O1 (stereo not given) + CC[n+]1ccn(C)c1.O=S(=O)([N-]S(=O)(=O)C(F)(F)F)C(F)(F)F
101.3 kPa, x2 = 0
Conditions | viscosity [mPa·s]
303.15 K | 2.246
318.15 K | 1.73
338.15 K | 1.294

CCCOCCO + COS(=O)(=O)[O-].Cn1cc[n+](C)c1
viscosity [mPa·s], 101 kPa
Conditions | x2 = 0.00104 | x2 = 0.002597 | x2 = 0.004149 | x2 = 0.005696 | x2 = 0.007238 | x2 = 0.008775
293.15 K | 2.6 | 2.63 | 2.65 | 2.67 | 2.7 | 2.73
303.15 K | 2.15 | 2.18 | 2.21 | 2.24 | 2.27 | 2.29
313.15 K | 1.81 | 1.84 | 1.88 | 1.91 | 1.95 | 1.99
